According to patent publication US20110218188A1, “SUBSTITUTED (PYRIDYL)-AZINYLAMINE DERIVATIVES AS FUNGICIDES” (priority 2008, published 2011):
Marks after values point to notes of the source that are not given here.

Experiment: Measurement of logP values by HPLC on reversed phase columns (EEC directive 79/831 Annex V.A8)
Assay type: physicochemical

| Compound | logP (pH 2.7) | also measured |
| --- | --- | --- |
| CN(CC1CC1)C(=O)c1cc(-c2ccnc(Nc3ccnc(Cl)c3)n2)ccn1 [Example A31] | 2.28 |  |
| CCN(CC)C(=O)c1cc(-c2ncnc(Nc3cccc(C#N)c3)n2)ccn1 [Example B292] | 2.45 |  |
| CN(C)C(=O)c1cc(-c2ncnc(Nc3cccc(F)c3)n2)ccn1 [Example B5] | 2.13 |  |
| CN(CCC#N)C(=O)c1cc(-c2ncnc(Nc3cccc(F)c3)n2)ccn1 [Example B1] | 2.22 |  |
| COC(=O)c1cc(-c2ncnc(Nc3ccc(F)c(OC)c3)n2)ccn1 [B416] | 2.43 |  |
| O=C(c1cc(-c2ncnc(Nc3cccc(Cl)c3)n2)ccn1)N1CCCC(O)C1 (stereo not shown) [Example B140] | 2.2 |  |
| CN(CC(F)F)C(=O)c1cc(-c2ncnc(Nc3ccc(F)c(C(F)F)c3)n2)ccn1 [Example B398] | 2.84 |  |
| CCN(C)C(=O)c1cc(-c2ncnc(Nc3ccc(F)c(C(F)F)c3)n2)ccn1 [Example B394] | 2.55 |  |
| O=C(NCCN1CCOCC1)c1cc(-c2ncnc(Nc3cccc(Cl)c3)n2)ccn1 [Example B105] | 1.68 |  |
| CCCN(C)C(=O)c1cc(-c2ncnc(Nc3cccc(OC(F)F)c3)n2)ccn1 [Example B299] | 2.86 |  |
| O=C(c1cc(Nc2nccc(-c3ccnc(C(=O)N4CCCC4)c3)n2)ccn1)N1CCCC1 [Example A8] | 1.37 |  |
| CC(=O)Nc1cccc(Nc2ncnc(-c3ccnc(C(=O)N(C)C)c3)n2)c1 [Example B307] | 1.4 |  |
| CCN(C)C(=O)c1cc(-c2ncnc(Nc3ccccc3)n2)ccn1 [Example B316] | 2.2 |  |
| CC(=O)Nc1cccc(Nc2ncnc(-c3ccnc(C(=O)N(C)CC(C)C)c3)n2)c1 [Example B308] | 2.1 |  |
| CCN(C)C(=O)c1cc(-c2ncnc(Nc3ccc(F)c(Cl)c3)n2)ccn1 [Example B207] | 2.75 |  |
| CCN(C)C(=O)c1cc(-c2ncnc(Nc3cccc(OC(F)(F)C(F)F)c3)n2)ccn1 [Example B260] | 2.92 |  |
| CC(C)N(C)C(=O)c1cc(-c2ncnc(Nc3cccc(C(F)F)c3)n2)ccn1 [Example B290] | 2.65 |  |
| CCN(C)C(=O)c1cc(-c2ccnc(Nc3ccnc(Cl)c3)n2)ccn1 [Example A17, 4-{2-[(2-chloropyridin-4-yl)amino]pyrimidin-4-yl}-N-ethyl-N-methylpyridine-2-carboxamide] |  | chromatographic logP (pH 2.7): 1.91 |
| CC(C)CN(C)C(=S)c1cc(-c2ncnc(Nc3ccc(F)c(C(F)F)c3)n2)ccn1 [Example B335] | 3.71 |  |
| COCc1cccc(Nc2ncnc(-c3ccnc(C(=O)N(C)C(C)C)c3)n2)c1 [Example B246] | 2.42 |  |
| CN(C)C(=O)c1cc(-c2ncnc(Nc3cccc(C#N)c3)n2)ccn1 [Example B294] | 1.88 |  |
| CCCN(C)C(=O)c1cc(-c2ncnc(Nc3ccsc3)n2)ccn1 [Example C14] | 2.45 |  |
| CCN(C)C(=O)c1cc(-c2ncnc(Nc3ccc(F)cc3)n2)ccn1 [Example B20] | 2.28 |  |
| O=C(c1cc(-c2ccnc(Nc3ccnc(Cl)c3)n2)ccn1)N1CCOCC1 [Example A22] | 1.69 |  |
| CCCN(CCC)C(=O)c1cc(-c2ncnc(Nc3ccc(OC)nc3)n2)ccn1 [Example C3] |  | logP (pH 7.8): 2.77^[c] |
| CCN(C)C(=S)c1cc(-c2ncnc(Nc3cccc(SC)c3)n2)ccn1 [Example B223] | 3.17 |  |
| CN(C)C(=O)c1cc(-c2ccnc(Nc3ccnc(Cl)c3)n2)ccn1 [Example A32] | 1.69 |  |

| Compound | logP (pH 2.7) | also measured |
| --- | --- | --- |
| CCN(C)C(=S)c1cc(-c2ncnc(Nc3ccsc3)n2)ccn1 [Example C23] | 2.68 |  |
| COC(=O)c1cc(-c2ncnc(Nc3ccsc3)n2)ccn1 [Example C24, methyl 4-[4-(3-thienylamino)-1,3,5-triazin-2-yl]pyridine-2-carboxylate] |  | chromatographic logP (pH 2.7): 2.23 |
| COc1cccc(Nc2ncnc(-c3ccnc(C(=O)N(C)C(C)C)c3)n2)c1 [Example B279] | 2.51 |  |
| CCN(C)C(=O)c1cc(-c2ncnc(Nc3ccc(F)c(F)c3)n2)ccn1 [Example B378] | 2.55 |  |
| CN(CCC#N)C(=O)c1cc(-c2ncnc(Nc3ccsc3)n2)ccn1 [Example C12] | 1.89 |  |
| CCN(CC)C(=O)c1cc(-c2ncnc(Nc3cccc(F)c3)n2)ccn1 [Example B2] | 2.72 |  |
| COC(=O)c1cc(-c2ncnc(Nc3ccc(C)c(Cl)c3)n2)ccn1 [B419] | 3.17 |  |
| O=C(c1cccc(-c2ccnc(Nc3ccnc(Cl)c3)n2)n1)N1CCC1 [Example A35] |  | logP (pH 2.3): 2.21^[b] |
| CCN(C)C(=O)c1cc(-c2ncnc(Nc3cccc(COC)c3)n2)ccn1 [Example B245] | 2.17 |  |
| O=C(c1cc(-c2ccnc(Nc3ccnc(Cl)c3)n2)ccn1)N1CCCC(CO)C1 (stereo not shown) [Example A9] | 1.69 |  |
| O=C(NCC1CC1)c1cc(-c2ncnc(Nc3ccc(F)c(Cl)c3)n2)ccn1 [B198] | 3.83 |  |
| CC(C)CN(C)C(=O)c1cc(-c2ncnc(Nc3ccc(F)cc3)n2)ccn1 [Example B19] | 2.92 |  |
| CC1CN(C(=O)c2cc(-c3ncnc(Nc4cccc(Cl)c4)n3)ccn2)CC(C)O1 (stereo not shown) [B154] | 2.92 |  |
| COCC(=O)ON=C(N)c1cc(-c2ncnc(Nc3cccc(Cl)c3)n2)ccn1 [Example B104, 4-{4-[(3-chlorophenyl)amino]-1,3,5-triazin-2-yl}-N′-[(methoxyacetyl)oxy]pyridine-2-carboximidamide] |  | chromatographic logP (pH 2.7): 2.92 |
| CCCN(C)C(=S)c1cc(-c2ncnc(Nc3cccc(COC)c3)n2)ccn1 [Example B250] | 3.05 |  |
| CO/N=C(\C)c1cc(-c2ncnc(Nc3cccc(Cl)c3)n2)ccn1 [Example B27, N-(3-chlorophenyl)-4-{2-[(1E)-N-methoxyethanimidoyl]pyridin-4-yl}-1,3,5-triazin-2-amine] |  | chromatographic logP (pH 2.7): 4.23 |
| O=C(NCCCN1CCCC1=O)c1cc(-c2ncnc(Nc3cccc(Cl)c3)n2)ccn1 [B100] | 2.63 |  |
| CCN(CC)C(=O)c1cc(-c2nc(Nc3ccsc3)ncc2C)ccn1 [Example A41, N,N-diethyl-4-[5-methyl-2-(3-thienylamino)pyrimidin-4-yl]pyridine-2-carboxamide] |  | chromatographic logP (pH 2.7): 2.61 |
| COc1ccc(Nc2ncnc(-c3ccnc(C(=O)N4CCCC4)c3)n2)cn1 [Example C1] |  | logP (pH 7.8): 1.99^[c] |
| COCC(C)NC(=O)c1cc(-c2ncnc(Nc3ccc(C)c(Cl)c3)n2)ccn1 (stereo not shown) [Example B225] | 3.8 |  |
| CCCN(C)C(=O)c1cc(-c2ncnc(Nc3ccc(F)c(F)c3)n2)ccn1 [Example B379] | 2.86 |  |
| CCN(C)C(=O)c1cc(-c2ncnc(Nc3cccc(C(C)C)c3)n2)ccn1 [Example B258] | 3.11 |  |
| CCN(C)C(=O)c1cccc(-c2ccnc(Nc3ccnc(Cl)c3)n2)n1 [Example A36] |  | logP (pH 2.3): 2.25^[b] |
| CSc1cccc(Nc2ncnc(-c3ccnc(C(=O)NC(C)C)c3)n2)c1 [B217] | 3.53 |  |
| O=C(NCCCN1CCCCCC1=O)c1cc(-c2ccnc(Nc3ccnc(Cl)c3)n2)ccn1 [Example A20] | 2.33 |  |
| COCc1cccc(Nc2ncnc(-c3ccnc(C(=O)N(C)C)c3)n2)c1 [Example B243] | 1.91 |  |
| CN(CC1CC1)C(=O)c1cc(-c2ncnc(Nc3ccc(F)cc3)n2)ccn1 [Example B17] | 2.73 |  |

Second part, led by results:

| logP (pH 2.7) | Compound | also measured |
| --- | --- | --- |
| 3.8 | CCCC(=O)O/N=C(/N)c1cc(-c2ncnc(Nc3cccc(Cl)c3)n2)ccn1 [B106] |  |
| 2.64 | CCN(OC)C(=O)c1cc(-c2ncnc(Nc3cccc(C(F)F)c3)n2)ccn1 [B413] |  |
| 4.11 | CCCCNC(=O)c1cc(-c2ncnc(Nc3cccc(Cl)c3)n2)ccn1 [Example B93] |  |
| 6.22 | CCC(=NOCc1ccc(Cl)cc1)c1cc(-c2ncnc(Nc3cccc(Cl)c3)n2)ccn1 (mixture of isomers) [B70] |  |
| 2.07 | O=C(c1cc(-c2ncnc(Nc3cccc(Cl)c3)n2)ccn1)N1CCC(O)C1 (stereo not shown) [B177] |  |
| 3.48 | CC1CCCN(C(=O)c2cc(-c3ncnc(Nc4cccc(Cl)c4)n3)ccn2)C1 (stereo not shown) [Example B135] |  |
| 6.24 | CCC(=NOC(C)C1CC1)c1cc(-c2ncnc(Nc3cccc(Cl)c3)n2)ccn1 (mixture of isomers) [B84] |  |
| 3.25 | CCCN(C)C(=O)c1cc(-c2ncnc(Nc3cccc(C(F)(F)F)c3)n2)ccn1 [Example B356] |  |
| 3.55 | O=C(c1cc(-c2ncnc(Nc3cccc(Cl)c3)n2)ccn1)N1CCC(C(F)(F)F)CC1 [B120] |  |
| 3.09 | O=C(NCC1CCCO1)c1cc(-c2ncnc(Nc3cccc(Cl)c3)n2)ccn1 (stereo not shown) [Example B33] |  |
| 3.17 | CCCNC(=O)c1cc(-c2ncnc(Nc3cccc(F)c3)n2)ccn1 [B323] |  |
| 3.39 | COC[C@H](C)NC(=O)c1cc(-c2ncnc(Nc3cccc(Cl)c3)n2)ccn1 [B52] |  |
| 3.32 | CCCN(C)C(=S)c1cc(-c2ncnc(Nc3cccc(F)c3)n2)ccn1 [Example B13] |  |
| 3.15 | CC(C)N(C)C(=O)c1cc(-c2ncnc(Nc3cccc(C(F)(F)F)c3)n2)ccn1 [B360] |  |
| 5.18 | CC(=NOCc1ccccc1)c1cc(-c2ncnc(Nc3cccc(Cl)c3)n2)ccn1 (mixture of isomers) [B50] |  |
| 4.3 | CC(C)CCNC(=O)c1cc(-c2ncnc(Nc3cccc(Cl)c3)n2)ccn1 [B61] |  |
| 4.58 | CC(=NOCC(F)(F)F)c1cc(-c2ncnc(Nc3cccc(Cl)c3)n2)ccn1 (mixture of isomers) [B73] |  |
| 2.8 | CN(CCC#N)C(=O)c1cc(-c2ncnc(Nc3cccc(OC(F)(F)F)c3)n2)ccn1 [Example B262] |  |
| 5.39 | CCC(=NOCC(F)(F)F)c1cc(-c2ncnc(Nc3cccc(Cl)c3)n2)ccn1 (mixture of isomers) [B58] |  |
| 3.11 | O=C(c1cc(-c2ncnc(Nc3cccc(Cl)c3)n2)ccn1)N1CC=CCC1 [Example B153] |  |
| 2.66 | CCN(C)C(=S)c1cc(-c2ncnc(Nc3cccc(COC)c3)n2)ccn1 [Example B248] |  |
| 3.24 | CCC(=NO)c1cc(-c2ncnc(Nc3cccc(Cl)c3)n2)ccn1 (mixture of isomers) [Example B64] |  |
| 4.04 | CCC(C)NC(=O)c1cc(-c2ncnc(Nc3cccc(Cl)c3)n2)ccn1 (stereo not shown) [Example B94] |  |
| 4.96 | COc1ccc(CON=C(C)c2cc(-c3ncnc(Nc4cccc(Cl)c4)n3)ccn2)cc1 (mixture of isomers) [B60] |  |
| 4.54 | CCCC(C)NC(=O)c1cc(-c2ncnc(Nc3cccc(Cl)c3)n2)ccn1 (stereo not shown) [Example B118] |  |
